Test results published in ChEMBL document CHEMBL5357021, “Novel Triazolopyridine-Based BRD4 Inhibitors as Potent HIV-1 Latency Reversing Agents” (ACS Med Chem Lett, 2024).
Active and inactive are the calls of the source. No cut-off for these calls is given here.

Experiments:
[1] = target: Bromodomain-containing protein 4 (Homo sapiens) (UniProt O60885); test: Inhibition of human BRD4 in J-lat 10.6 cells contains HIV-1 long terminal repeats (LTR)-Tat-GFP assessed as CDK9 expression at 2 to 50 uM measured after 24 hrs by Western blot analysis; assay type: cell-based; conditions: dose 2-50 µM
PBMC [2] = test: Immune hyper-activation in human PBMC cells assessed as CD69 expression at 10 uM measured after 48 hrs by flow cytometry; assay type: toxicity, cell-based
J-Lat 10.6 [3] = test: Reversal of HIV-1 latency in human J-Lat10.6 cells contains HIV-1 long terminal repeats (LTR)-Tat-GFP assessed as reactivation measured at 10 uM after 48 hrs in presence of Efavirenz by flow cytometry; assay type: functional, cell-based; conditions: Human immunodeficiency virus 1
[4] = Cytotoxicity against human J-Lat A10.6 cells infected with HIV-1 assessed as cell viability measured after 48 hrs by MTT assay; assay type: toxicity, cell-based; conditions: j-lat 10.6, 48 h
[5] = target: Bromodomain-containing protein 4 (Homo sapiens) (UniProt O60885); test: Inhibition of human BRD4 recruitment in J-Lat A10.6 cells contains HIV-1 long terminal repeats (LTR) assessed as reduction of BRD4 and HIV-1 LTR interaction at 10 uM incubated for 6 hrs by CHIP assay; assay type: cell-based; conditions: J-Lat 10.6
J-Lat 10.6 [6] = test: Reversal of HIV-1 latency in human J-Lat10.6 cells contains HIV-1 long terminal repeats (LTR)-Tat-GFP assessed as reactivation measured at 10 uM after 48 hrs in presence of darunavir by flow cytometry; assay type: functional, cell-based; conditions: Human immunodeficiency virus 1
PBMC [7] = test: Cytotoxicity against human PBMC cells assessed as cell viability measured after 48 hrs by MTT assay; assay type: toxicity, cell-based
[8] = Cytotoxicity against human OM10.1 cells infected with HIV-1 assessed as cell viability measured after 48 hrs by MTT assay; assay type: toxicity, cell-based; conditions: om10.1, 48 h
[9] = target: Bromodomain-containing protein 4 (Homo sapiens) (UniProt O60885); test: Inhibition of human BRD4 in J-lat 10.6 cells contains HIV-1 long terminal repeats (LTR)-Tat-GFP assessed as phosphorylated CDK9 expression at 2 to 50 uM measured after 24 hrs by Western blot analysis; assay type: cell-based; conditions: dose 2-50 µM
[10] = tested on: Human immunodeficiency virus 1; test: Reversal of HIV-1 latency in ACH-2 cell line contains complete HIV-1 provirus assessed as reactivation by measuring HIV-1 p24 antigen expression 5 uM measured after 48 hrs by ELISA; assay type: functional, organism-based
[11] = Synergistic reversal of HIV-1 latency in human J-Lat 10.6 cells contains HIV-1 long terminal repeats (LTR)-Tat-GFP assessed as increase in GFP-positive cells by measuring combination index at 10 uM incubated for 48 hrs in presence of N1-hydroxy-N8-phenyloctanediamide by flow cytometry; assay type: functional, Human immunodeficiency virus 1
PBMC [12] = test: Effect on CXCR4 expression in human PBMC cells at 1 uM incubated for 48 hrs by flow cytometry; assay type: functional, cell-based
[13] = Cytotoxicity against human non-infected J-Lat A10.6 cells assessed as cell death by CCK8 assay; assay type: toxicity, cell-based, J-Lat 10.6
[14] = target: Bromodomain-containing protein 4 (Homo sapiens) (UniProt O60885); test: Inhibition of human BRD4 in J-lat 10.6 cells contains HIV-1 long terminal repeats (LTR)-Tat-GFP assessed as cyclin T1 expression at 2 to 50 uM measured after 24 hrs by Western blot analysis; assay type: cell-based; conditions: dose 2-50 µM
ACH-2 cell line = test: Cytotoxicity against human ACH-2 cell line cells infected with HIV-1 assessed as cell viability measured after 48 hrs by MTT assay; assay type: toxicity, cell-based; conditions: ach-2, 48 h
[15] = Effect on CXCR4 expression in human PBMC cells at 10 uM incubated for 48 hrs by flow cytometry; assay type: toxicity, cell-based
[16] = target: Bromodomain-containing protein 4 (Homo sapiens) (UniProt O60885); test: Inhibition of BRD4 BD1 domain (unknown origin) at 1 uM by HTRF assay
[17] = target: Bromodomain-containing protein 4 (Homo sapiens) (UniProt O60885); test: Inhibition of BRD4 BD2 domain (unknown origin) at 1 uM by HTRF assay
[18] = target: Bromodomain-containing protein 4 (Homo sapiens) (UniProt O60885); test: Inhibition of BRD4 in human J-Lat 10.6 cells contains HIV-1 long terminal repeats (LTR)-Tat-GFP assessed as increased CDK9 enrichment in LTR at 10 uM incubated for 6 hrs by ChiP assay; assay type: cell-based
[19] = tested on: Human immunodeficiency virus 1; test: Reversal of HIV-1 latency in CD4+ T-lymphoid J-Lat cells contains HIV-1 long terminal repeats (LTR)-Tat-GFP assessed as reactivation measured after 48 hrs by flow cytometry; assay type: functional, organism-based; conditions: Human immunodeficiency virus 1, J-Lat 10.6, 48 h
PBMC [20] = test: Immune hyper-activation in human PBMC cells assessed as HLA-DR expression at 10 uM measured after 48 hrs by flow cytometry; assay type: toxicity, cell-based
[21] = target: Bromodomain-containing protein 4 (Homo sapiens) (UniProt O60885); test: Inhibition of BRD4 in human J-Lat 10.6 cells contains HIV-1 long terminal repeats (LTR)-Tat-GFP assessed as increased RNA pol II enrichment in LTR at 10 uM incubated for 6 hrs by ChiP assay; assay type: cell-based
[22] = tested on: Human immunodeficiency virus 1; test: Synergistic reversal of HIV-1 latency in human J-Lat 10.6 cells contains HIV-1 long terminal repeats (LTR)-Tat-GFP assessed as increase in GFP-positive cells by measuring combination index at 10 uM incubated for 48 hrs in presence of Prostratin by flow cytometry; assay type: functional
[23] = target: Bromodomain-containing protein 4 (Homo sapiens) (UniProt O60885); test: Inhibition of BRD4 phosphorylation in human J-Lat A10.6 cells contains HIV-1 long terminal repeats (LTR)-Tat-GFP at 2 to 50 uM measured after 24 hrs by Western blotting analysis; assay type: cell-based; conditions: J-Lat 10.6, dose 2-50 µM
PBMC [24] = test: Immune hyper-activation in human PBMC cells assessed as CD25 expression at 10 uM measured after 48 hrs by flow cytometry; assay type: toxicity, cell-based
J-Lat 10.6 [25] = test: Reversal of HIV-1 latency in human J-Lat10.6 cells contains HIV-1 long terminal repeats (LTR)-Tat-GFP assessed as reactivation measured at 10 uM after 48 hrs in presence of raltegravir by flow cytometry; assay type: functional, cell-based; conditions: Human immunodeficiency virus 1
PBMC [26] = test: Effect on CXCR5 expression in human PBMC cells at 1 uM incubated for 48 hrs by flow cytometry; assay type: functional, cell-based
[27] = Effect on CXCR5 expression in human PBMC cells at 10 uM incubated for 48 hrs by flow cytometry; assay type: toxicity, cell-based

Cc1nnc2ccc(-c3cc(NS(=O)(=O)c4ccc(F)cc4)ccc3Oc3ccc(F)cc3F)cn12
inhibition [1]: inactive
Activity (PBMC [2]): Non-Toxic
Activity (J-Lat 10.6 [3]): Active
Activity [4]: Non-Toxic
inhibition [5]: Active
Activity (J-Lat 10.6 [6]): Active
Activity (PBMC [7]): Non-Toxic
Activity [8]: Non-Toxic
inhibition [9]: Active
Activity [10]: Active
CI [11]: 0.1
Activity (PBMC [12]): inactive
CC50 [13]: > 50 µM
inhibition [14]: inactive
Activity (ACH-2 cell line): Non-Toxic
Activity [15]: Not Active
inhibition [16]: Active
inhibition [17]: Active
inhibition [18]: Active
EC50 [19]: 1.6 µM
Activity (PBMC [20]): Non-Toxic
inhibition [21]: Active
CI [22]: 0.1
inhibition [23]: Active
Activity (PBMC [24]): Non-Toxic
Activity (J-Lat 10.6 [25]): Active
Activity (PBMC [26]): inactive
Activity [27]: Not Active
